Reference: article PMC6013774 (Chemical Science, 2016)

Target: T1, AhbD (Methanosarcina barkeri, UniProt Q46CH7)
T1 sequence (Q46CH7 1-349): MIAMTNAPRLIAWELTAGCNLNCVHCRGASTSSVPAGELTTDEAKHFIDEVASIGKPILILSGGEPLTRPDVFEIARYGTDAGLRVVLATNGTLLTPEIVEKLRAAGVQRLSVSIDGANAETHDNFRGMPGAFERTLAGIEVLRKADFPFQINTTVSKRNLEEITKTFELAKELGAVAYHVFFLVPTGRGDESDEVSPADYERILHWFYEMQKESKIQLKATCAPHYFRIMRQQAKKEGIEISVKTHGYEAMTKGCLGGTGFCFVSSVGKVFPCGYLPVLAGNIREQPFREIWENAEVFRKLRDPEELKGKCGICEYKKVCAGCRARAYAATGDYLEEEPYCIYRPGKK
Assay: tryptophan fluorescence quenching
Format: binding

Kd: 33.9 ± 3.9 µM
SMILES: CC1=C(CCC(=O)O)c2cc3nc(cc4[nH]c(cc5[nH]c(cc1n2)c(C)c5CCC(=O)O)c(CCC(=O)O)c4C)C(CCC(=O)O)=C3C [COPRO III]
